According to ChEMBL document CHEMBL1152104, “Synthesis of partially non-peptidic neurotensin mimetics” (Bioorg Med Chem Lett, 1994):

How the values were obtained:
Homo sapiens = organism: Homo sapiens; assay: Concentration required to stimulate cGMP production in NIE-115 neuroblastoma cells at higher doses in 10-100 uM range; assay type: functional, cell-based
[1] = target: T1, Neurotensin receptor type 1 (Rattus norvegicus, UniProt P20789); assay: Equilibrium dissociation constant at cloned rat Neurotensin receptor (NT) receptor expressed in CHO-K1 cells; 0.3-0.7 uM; assay type: cell-based
CHO-K1 = assay: Effect on PI turnover in intact CHO-K1 cells; assay type: functional, cell-based; conditions: Cricetulus griseus
[2] = target: T1, Neurotensin receptor type 1; assay: Equilibrium dissociation constant at cloned rat Neurotensin receptor (NT) receptor

T1 sequence (P20789 whole entry): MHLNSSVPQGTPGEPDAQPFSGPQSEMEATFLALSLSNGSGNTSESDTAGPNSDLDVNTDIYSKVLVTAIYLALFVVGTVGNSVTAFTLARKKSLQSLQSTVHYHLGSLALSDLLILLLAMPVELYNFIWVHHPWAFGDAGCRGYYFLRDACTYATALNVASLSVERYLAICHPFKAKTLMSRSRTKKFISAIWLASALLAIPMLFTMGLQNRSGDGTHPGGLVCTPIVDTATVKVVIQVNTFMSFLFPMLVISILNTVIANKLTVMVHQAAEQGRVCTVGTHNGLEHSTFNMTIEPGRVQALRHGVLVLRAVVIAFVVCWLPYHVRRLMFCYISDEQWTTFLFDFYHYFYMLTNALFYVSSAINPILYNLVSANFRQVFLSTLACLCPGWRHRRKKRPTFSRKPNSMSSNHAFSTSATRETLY

EC50 (Homo sapiens) [nM] | Kd [1] [nM] | Kd [2] [nM] | Structure (SMILES) | EC50 (CHO-K1) [nM]
19000 | 300 |  | CC[C@H](C)[C@H](NC(=O)[C@H](Cc1ccc(O)cc1)NC(=O)c1[nH]c2c(OCCCCCN=C(N)N)cccc2c1CCCCCCN=C(N)N)C(=O)N[C@@H](CC(C)C)C(=O)O.O=C(O)C(F)(F)F | 
 | 300 |  | CC[C@H](C)[C@H](NC(=O)[C@H](Cc1ccc(O)cc1)NC(=O)c1[nH]c2c(OCCCCCN)cccc2c1CCCCCCN)C(=O)N[C@@H](CC(C)C)C(=O)O | ~1300
 | 300 |  | CC[C@H](C)[C@H](NC(=O)[C@H](Cc1c[nH]c2ccccc12)NC(=O)c1[nH]c2c(OCCCCCN=C(N)N)cccc2c1CCCCCCN=C(N)N)C(=O)N[C@@H](CC(C)C)C(=O)O | 
 |  | ~40000 | CC[C@H](C)[C@H](NC(=O)[C@H](Cc1ccc(O)cc1)NC(=O)c1[nH]c2ccc(OCCCCCN)cc2c1CCCCCCN)C(=O)N[C@@H](CC(C)C)C(=O)O | 
